Where a name gives a salt, the structure may show the parent alone.
How the values were obtained:
[1] = test system: E. coli B11; assay: MIC, serial dilution in nutrient agar, synergism with ampicillin; assay type: cell-based; conditions: alone
[2] = test system: E. coli JT39; assay: as above; assay type: cell-based; conditions: alone
[3] = test system: Proteus mirabilis 889; assay: as above; assay type: cell-based; conditions: alone
[4] = test system: Proteus mirabilis 247; assay: as above; assay type: cell-based; conditions: alone
[5] = test system: Proteus rettgeri R110; assay: as above; assay type: cell-based; conditions: alone
[6] = test system: Staph. aureus (Russell); assay: as above; assay type: cell-based; conditions: alone
[7] = test system: Staph. aureus (Russell H); assay: as above; assay type: cell-based; conditions: alone
[8] = test system: β-lactamase of Escherichia coli B11; assay: I50 determination: inhibition of hydrolysis of ampicillin by E. coli B11 β-lactamase (starch-iodometric assay); assay type: biochemical; conditions: MM 4550A
Source text: This β-lactamase is classified as a type IIIa enzyme according to the classification of Richmond and Sykes [Adv. in Microbiol.Physiol. 9 31 (1973)]
The rate of β-lactamase hydrolysis of ampicillin to its penicilloic acid can be followed by a starch-iodometric assay in which one measures the rate of formation of penicilloic acid by following the decolorization of a starch-iodine complex. This method and the preparation of the β-lactamase are described in a paper by Cole M., Elson S., and Fullbrook P.D. (Biochemical Journal 1972, 127, 295-308). […] The procedure was as follows:
Buffer: 0.05M pH7 potassium phosphate buffer
Prepared from E. coli B11 as described by Cole
Enzyme: et al, Biochem. J. (1972) 127, 295. The dilution
of the enzyme preparation in buffer was such as
to give a fall of about 0.3 optical density
units per 100 secs. in the uninhibited reaction.
The reactions were carried out in 1 cm cuvettes at 37° C. in an SP 800 Pye Unicam spectrophotometer. This instrument can carry four sample cuvettes and their corresponding blanks. The first cuvette was used for the control reaction and contained no inhibitor. The 2nd, 3rd and 4th cuvettes were used for various dilutions of the inhibitor.
Inhibitor of buffer 0.1 ml 0.1 ml
Substrate (added after incubation […]

[9] = target: Escherichia coli β-lactamase (Escherichia coli, UniProt P62593); assay: β-lactamase inhibition (qualitative); assay type: biochemical
Sequence of Escherichia coli β-lactamase (P62593 24-286 limits assumed): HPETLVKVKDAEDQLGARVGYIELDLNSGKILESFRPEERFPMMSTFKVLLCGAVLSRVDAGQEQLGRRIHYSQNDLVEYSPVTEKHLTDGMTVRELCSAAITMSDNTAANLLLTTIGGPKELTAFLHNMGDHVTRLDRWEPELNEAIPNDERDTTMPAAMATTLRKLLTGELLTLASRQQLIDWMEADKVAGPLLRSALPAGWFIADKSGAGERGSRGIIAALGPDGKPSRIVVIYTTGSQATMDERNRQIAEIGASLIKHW
Source text: In a further experiment, the two substances were separated on a cellulose thin layer developed with isopropanol:water (8:2) and extracted from the cellulose with phosphate buffer.

[10] = test system: β-lactamases produced by Klebsiella aerogenes; assay: β-lactamase inhibition (qualitative); assay type: biochemical
[11] = target: β-lactamases produced by Staphylococcus aureus (Staphylococcus aureus, UniProt P00807); assay: β-lactamase inhibition (qualitative); assay type: biochemical
Sequence of β-lactamases produced by Staphylococcus aureus (P00807 25-281): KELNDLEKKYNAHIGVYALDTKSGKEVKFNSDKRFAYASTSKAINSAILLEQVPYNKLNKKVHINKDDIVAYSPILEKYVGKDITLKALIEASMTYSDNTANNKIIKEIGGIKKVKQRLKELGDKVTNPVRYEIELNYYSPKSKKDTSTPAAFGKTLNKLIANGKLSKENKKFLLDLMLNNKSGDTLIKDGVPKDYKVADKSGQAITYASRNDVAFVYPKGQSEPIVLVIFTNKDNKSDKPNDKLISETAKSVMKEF

[12] = test system: various species including strains of Staphylococcus aureus, Bacillus subtilis, Escherichia coli, Klebsiella aerogenes, Proteus mirabilis; assay: antibacterial activity (qualitative); assay type: cell-based, various bacterial species; conditions: sodium salt, inter alia S. aureus, B. subtilis, E. coli, K. aerogenes, P. mirabilis
[13] = test system: Escherichia coli, Klebsiella aerogenes, Proteus mirabilis, Proteus morganii and Staphylococcus aureus Russell; assay: synergy with ampicillin (qualitative); assay type: cell-based
[14] = test system: B. subtilis, Staphylococcus aureus, Escherichia coli, Salmonella typhimurium, Proteus mirabilis, Proteus morganii and Klebsiella aerogenes; assay: detection by bioautography after cellulose TLC (qualitative); assay type: cell-based, various bacterial species; conditions: n-butanol:isopropanol:water 7:7:6
[15] = test system: Klebsiella aerogenes; assay: bioautography zone diameter (cellulose TLC); assay type: cell-based; conditions: butanol/isopropyl alcohol/water 7:7:6
[16] = test system: Proteus morganii; assay: bioautography zone diameter (cellulose TLC); assay type: cell-based; conditions: butanol/isopropyl alcohol/water 7:7:6
[17] = test system: Escherichia coli 10418; assay: bioautography zone diameter (cellulose TLC); assay type: cell-based; conditions: butanol/isopropyl alcohol/water 7:7:6
[18] = test system: Enterobacter aerogenes; assay: bioautography zone diameter (cellulose TLC); assay type: cell-based; conditions: butanol/isopropyl alcohol/water 7:7:6
[19] = test system: Staphylococcus aureus (Oxford); assay: bioautography zone diameter (cellulose TLC); assay type: cell-based; conditions: butanol/isopropyl alcohol/water 7:7:6
[20] = test system: Staphylococcus aureus (Russell); assay: bioautography zone diameter (cellulose TLC); assay type: cell-based; conditions: butanol/isopropyl alcohol/water 7:7:6
[21] = test system: Bacillus subtilis; assay: bioautography zone diameter (cellulose TLC); assay type: cell-based; conditions: butanol/isopropyl alcohol/water 7:7:6
[22] = solubility; conditions: sodium salt
[23] = specific activity relative to culture filtrate (arbitrary units)
Procedure: The material produced above was arbitrarily assigned an activity of 340 1/ml. Assays were determined as described in Description 3.

[24] = stability; assay type: physicochemical; conditions: monobasic salts and free acid

## CC1(C)S[C@@H]2[C@H](NC(=O)[C@H](N)c3ccccc3)C(=O)N2[C@H]1C(=O)O [Ampicillin, ampicillin]
[1]
  minimum inhibitory concentration: > 500
[2]
  minimum inhibitory concentration: > 500
[3]
  minimum inhibitory concentration: > 500
[4]
  minimum inhibitory concentration: > 500
[5]
  minimum inhibitory concentration: 250
[6]
  minimum inhibitory concentration: 250
[7]
  minimum inhibitory concentration: > 500

## CC(=O)N/C=C/[S+]([O-])C1=C(C(=O)O)N2C(=O)C(C(C)OS(=O)(=O)O)C2C1 (stereo not shown) [MM 4550A]
[8]
  I50: less than 0.0001 μg/ml
[9]
  enzyme inhibitory activity against β-lactamase: possesses enzyme inhibitory activity
[10]
  enzyme inhibitory activity against β-lactamase: possesses enzyme inhibitory activity
[11]
  enzyme inhibitory activity against β-lactamase: possesses enzyme inhibitory activity
[12]; Acinetobacter anitratus, Serratia, Shigella sonnei
  antibacterial activity against various species: possesses antibacterial activity
[13]
  synergy when mixed with ampicillin: synergyses its activity
[14]
  detection by bioautography: may be detected by bioautography on a variety of organisms
[15]
  Zone Diameter on Bioautography: 20.0 mm
[16]
  Zone Diameter on Bioautography: 16.0 mm
[17]
  Zone Diameter on Bioautography: 20.0 mm
[18]
  Zone Diameter on Bioautography: 6.5 mm
[19]
  Zone Diameter on Bioautography: 13.0 mm
[20]
  Zone Diameter on Bioautography: 12.0 mm
[21]
  Zone Diameter on Bioautography: 24.0 mm
[22]
  solubility in chloroform, diethylether and hydrocarbons: substantially insoluble
  solubility in methanol: soluble
  solubility in water: highly soluble

## CC(=O)N/C=C/SC1=C(C(=O)O)N2C(=O)C(C(C)OS(=O)(=O)O)C2C1 (stereo not shown) [MM 13902 di-sodium salt]
[23]; after cellulose chromatography, yellowish powder
  activity: 73,000 units/mg

## CC(=O)N/C=C/SC1=C(C(=O)O)N2C(=O)C(C(C)OS(=O)(=O)O)C2C1 (stereo not shown) [MM 13902]
[12]; Salmonella typhi, Ps. aeruginosa
  antibacterial activity against various species: possessed antibacterial activity
[13]
  synergy when mixed with ampicillin: synergizes its activity
[24]
  stability to isolation from mixtures such as MM 4550 (Complex): not sufficiently stable to isolate from mixtures
[23]; partially purified, after Amberlite XAD 4
  activity: 37,000 units/mg
[14]
  detection by bioautography: may be detected by bioautography on a variety of organisms
[18]
  Zone Diameter on Bioautography: No Zone
[22]
  solubility in chloroform, diethylether and hydrocarbons: substantially insoluble
  solubility in methanol: soluble
  solubility in water: highly soluble
